Where a name gives a salt, the structure may show the parent alone.

By IC50 is commonly meant the concentration that gives 50% inhibition. Read a low IC50 as inhibition by little substance.

One data set relates to NCI-H292. Description: Cytotoxicity MTT assay, NCI-H292. The format is cell-based, human. The text has this: (§1) Table 2 below lists the IC50 values of representative working examples from the assay described and the corresponding cytotoxicity data (MTT assay).
A further data set concerns KPL4. Description: Cytotoxicity MTT assay, KPL4. The format is cell-based.
Source text: as §1
Background: Tetrazolium assays rely on reduction of a dye to a coloured formazan, in cell work by metabolically active cells.

A further data set has as its system Caco-2 cells. The experiment in a line: Cell permeability flux assay using Caco-2 cells. It counts as in vitro ADME. The conditions noted are these: for Papp (B-A): Caco-2, 2 hours incubation.
Data set [1] addresses motor domain of the human kinesin spindle protein KSP/Eg5 (Homo sapiens (Human), UniProt P52732). Description: Inhibition of the kinesin spindle protein KSP/Eg5 (ATPase, malachite green). The format is biochemical. The conditions noted are these: 10 nM KSP motor domain, microtubuli, 500 μM ATP, 2 h RT. The procedure: The motor domain of the human kinesin spindle protein KSP/Eg5 (tebu-bio/Cytoskeleton Inc, No. 027EG01-XL) was incubated in a concentration of 10 nM with microtubuli (bovine or porcine, tebu-bio/Cytoskeleton Inc) stabilized with 50 μg/ml taxol (Sigma No. T7191-5MG) for 5 min at RT in 15 mM PIPES, pH 6.8 (5 mM MgCl2 and 10 mM DTT, Sigma). […] Incubation was at RT for 2 h. ATPase activity was detected by detecting the inorganic phosphate formed using malachite green (Biomol). […] The positive controls used were monastrol (Sigma, M8515-1 mg) and ispinesib (AdooQ Bioscience A10486). The individual data of the dose-activity curve are eight-fold determinations. The IC50 values are means of two independent experiments.

The mark [2] stands for this setting: Homo sapiens, NCI-H292, MTT assay.

Chain of motor domain of the human kinesin spindle protein KSP/Eg5 (P52732 18-359): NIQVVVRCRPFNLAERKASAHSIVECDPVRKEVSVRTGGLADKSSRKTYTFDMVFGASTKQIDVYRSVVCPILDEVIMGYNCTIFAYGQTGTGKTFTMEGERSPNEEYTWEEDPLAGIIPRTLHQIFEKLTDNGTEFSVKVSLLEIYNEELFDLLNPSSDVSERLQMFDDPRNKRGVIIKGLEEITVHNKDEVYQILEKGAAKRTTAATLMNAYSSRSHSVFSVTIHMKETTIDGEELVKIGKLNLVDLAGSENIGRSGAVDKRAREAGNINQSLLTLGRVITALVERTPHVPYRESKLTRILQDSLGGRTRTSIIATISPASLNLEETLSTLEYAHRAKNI

The molecule `CC(C)(C)[C@H](c1cc(-c2cc(F)ccc2F)cn1Cc1ccccc1)N(CC[C@H](N)C(=O)NCCNC(=O)CNC(=O)C(CC(=O)O)SC[C@H](N)C(=O)O)C(=O)CO` (mixture of isomers) [Example M27, 4-[(2-{[2-({(2S)-2-Amino-4-[{(1R)-1-[1-benzyl-4-(2,5-difluorophenyl)-1H-pyrrol-2-yl]-2,2-dimethylpropyl}(glycoloyl)amino]butanoyl}amino)ethyl]amino}-2-oxoethyl)amino]-3-{[(2R)-2-amino-2-carboxyethyl]sulfanyl}-4-oxobutanoic acid-trifluoroacetic acid (1:1)] showed an IC50 with NCI-H292 (setting [2]) of 276 nM.

Take `CC(C)(C)[C@H](c1cc(-c2cc(F)ccc2F)cn1Cc1ccccc1)N(CC[C@H](N)C(=O)NCCNC(=O)CNC(=O)CC(SC[C@H](N)C(=O)O)C(=O)O)C(=O)CO` (single isomer, unassigned) [Example M13]: the half-inhibitory concentration (IC50) with NCI-H292 (setting [2]) was 152 nM; in the data set on KPL4 (KPL4, MTT assay) it was 169 nM.

Take `CC(C)(C)[C@H](c1cc(-c2cc(F)ccc2F)cn1Cc1ccccc1)N(CC[C@H](N)C(=O)NCCNC(=O)CNC(=O)CC(SC[C@H](N)C(=O)O)C(=O)O)C(=O)CO` (single isomer, unassigned) [Example M14]: the 50% inhibitory concentration (IC50) is 174 nM in the data set with NCI-H292 (MTT assay) and 182 nM with KPL4 (MTT assay).

For the molecule `CC(C)(C)[C@H](c1cc(-c2cc(F)ccc2F)cn1Cc1ccccc1)N(CC[C@H](N)C(=O)NCCNC(=O)CNC(=O)C(CC(=O)O)SC[C@H](N)C(=O)O)C(=O)CO` (single isomer, unassigned) [Example M15], the IC50 with NCI-H292 (setting [2]) stood at 133 nM; in the data set on KPL4 (KPL4, MTT assay) it was 169 nM.

As to `CC(C)(C)[C@H](c1cc(-c2cc(F)ccc2F)cn1Cc1ccccc1)N(CC[C@H](N)C(=O)NCCNC(=O)CNC(=O)C(CC(=O)O)SC[C@H](N)C(=O)O)C(=O)CO` (single isomer, unassigned) [Example M16], the half-maximal inhibitory concentration (IC50) in the data set with NCI-H292 (setting [2]) was 143 nM; in the data set with KPL4 (KPL4, MTT assay), 195 nM.

On to `CC(C)(C)[C@H](c1cc(-c2cc(F)ccc2F)cn1Cc1ccccc1)N(CC[C@H](N)C(=O)NCCNC(=O)CN1C(=O)CC(SC[C@H](N)C(=O)O)C1=O)C(=O)CO` (stereo partly drawn) [Example M1, S-[1-(2-{[2-({(2S)-2-Amino-4-[{(1R)-1-[1-benzyl-4-(2,5-difluorophenyl)-1H-pyrrol-2-yl]-2,2-dimethylpropyl}(glycoloyl)amino]butanoyl}amino)ethyl]amino}-2-oxoethyl)-2,5-dioxopyrrolidin-3-yl]-L-cysteine/trifluoroacetic acid (1:1)], for which the IC50 with NCI-H292 (setting [2]) was 500 nM; in the data set on KPL4 (KPL4, MTT assay), 500 nM.

As to `CC(C)(C)[C@H](c1cc(-c2cc(F)ccc2F)cn1Cc1ccccc1)N(CC[C@H](N)C(=O)NCCNC(=O)CNC(=O)CC(SC[C@H](N)C(=O)O)C(=O)O)C(=O)CO` (stereo partly drawn) [Example M2], the “Papp (B-A)” value in the data set with Caco-2 cells was 0.48 ×10⁻⁶ cm/s. Further, the IC50 with NCI-H292 (MTT assay) was 204 nM; in the data set with KPL4 (MTT assay), 163 nM.

On to `CC(C)(C)[C@H](c1cc(-c2cc(F)ccc2F)cn1Cc1ccccc1)N(CC[C@H](N)C(=O)N[C@H](CNC(=O)CNC(=O)CC(SC[C@H](N)C(=O)O)C(=O)O)C(=O)O)C(=O)CO` (stereo partly drawn) [Example M3], for which, in the data set with Caco-2 cells, the “Papp (B-A)” value came out at 0.14 ×10⁻⁶ cm/s. For the same molecule, in the data set on Caco-2 cells (ratio of Papp (B-A) to Papp (A-B), Caco-2), the Efflux ratio amounted to 1.3. The half-maximal inhibitory concentration (IC50) was 32.1 nM in the data set with NCI-H292 (MTT assay), 1.52 nM in data set [1] and 90 nM with KPL4 (MTT assay).

As to `CC(C)(C)[C@H](c1cc(-c2cc(F)ccc2F)cn1Cc1ccccc1)N(CC[C@H](N)C(=O)NCCOCCN1C(=O)CC(SC[C@H](N)C(=O)O)C1=O)C(=O)CO` (stereo partly drawn) [Example M4, S-(1-{2-[2-({(2S)-2-Amino-4-[{(1R)-1-[1-benzyl-4-(2,5-difluorophenyl)-1H-pyrrol-2-yl]-2,2-dimethylpropyl}(glycoloyl)amino]butanoyl}amino)ethoxy]ethyl}-2,5-dioxopyrrolidin-3-yl)-L-cysteine/trifluoroacetic acid (1:1)], the IC50 is 44.3 nM in the data set on NCI-H292 (setting [2]) and 176 nM in the data set with KPL4 (KPL4, MTT assay).

Regarding `CC(C)(C)[C@H](c1cc(-c2cc(F)ccc2F)cn1Cc1ccccc1)N(CC[C@H](N)C(=O)NCCNC(=O)CSC[C@H](N)C(=O)O)C(=O)CO` [Example M7, S-(2-{[2-({(2S)-2-Amino-4-[{(1R)-1-[1-benzyl-4-(2,5-difluorophenyl)-1H-pyrrol-2-yl]-2,2-dimethylpropyl}(glycoloyl)amino]butanoyl}amino)ethyl]amino}-2-oxoethyl)-L-cysteine/trifluoroacetic acid (1:1)], the half-maximal inhibitory concentration (IC50) amounted to 22.2 nM in the data set with NCI-H292 (setting [2]) and 92.5 nM with KPL4 (KPL4, MTT assay).

Consider `CC(C)(C)[C@H](c1cc(-c2cc(F)ccc2F)cn1Cc1ccccc1)N(CCCN)C(=O)CO` [Example M9, N-(3-Aminopropyl)-N-{(1R)-1-[1-benzyl-4-(2,5-difluorophenyl)-1H-pyrrol-2-yl]-2,2-dimethylpropyl}-2-hydroxyacetamide], for which the IC50 in the data set with NCI-H292 (Homo sapiens, NCI-H292) came to 0.774 nM; with KPL4 (KPL4), 0.257 nM.

Consider `CC(C)(C)[C@H](c1cc(-c2cc(F)ccc2F)cn1Cc1ccccc1)N(CCCN)C(=O)CSC[C@H](NC(=O)CCOCCOCCOCCOCCNC(=O)CCNC(=O)CC(SC[C@H](N)C(=O)O)C(=O)O)C(=O)O` (stereo partly drawn) [Example M10], for which the IC50 in the data set on NCI-H292 (MTT assay) worked out at 303 nM; in data set [1] it was 0.47 nM; with KPL4 (MTT assay), 226 nM.

On to `CC(C)(C)[C@H](c1cc(-c2cc(F)ccc2F)cn1Cc1ccccc1)N(CCCN)C(=O)CSC[C@H](N)C(=O)O` [Example M11, S-{2-[(3-Aminopropyl){(1R)-1-[1-benzyl-4-(2,5-difluorophenyl)-1H-pyrrol-2-yl]-2,2-dimethyl-propyl}amino]-2-oxoethyl}-L-cysteine/trifluoroacetic acid (1:2)], for which the IC50 with NCI-H292 (setting [2]) was determined as 0.0432 nM.

In the data set with NCI-H292 (setting [2]), `CC(C)(C)[C@H](c1cc(-c2cc(F)ccc2F)cn1Cc1ccccc1)N(CCCN)C(=O)CSC[C@H](NC(=O)CCC(=O)O)C(=O)O` [Example M12, 4-{[(1R)-2-({2-[(3-Aminopropyl) {(1R)-1-[1-benzyl-4-(2,5-difluorophenyl)-1H-pyrrol-2-yl]-2,2-dimethylpropyl}amino]-2-oxoethyl}sulphanyl)-1-carboxyethyl]amino}-4-oxobutanoic acid/trifluoroacetic acid (1:1)] registered an IC50 of 33 nM.

In turn, `CC(C)(C)[C@H](c1cc(-c2cc(F)ccc2F)cn1Cc1ccccc1)N(CC[C@H](N)C(=O)O)C(=O)CO` [Example M17, (2S)-2-Amino-4-[{(1R)-1-[1-benzyl-4-(2,5-difluorophenyl)-1H-pyrrol-2-yl]-2,2-dimethylpropyl}(glycoloyl)amino]butanoic acid hydrochloride (1.1)] displayed a half-maximal inhibitory concentration (IC50) in the data set with NCI-H292 (setting [2]) of 7.35 nM.

Molecule `CC(C)(C)[C@H](c1cc(-c2cc(F)ccc2F)cn1Cc1ccccc1)N(CC[C@H](N)C(=O)NCCNC(=O)CC[C@H](N)C(=O)O)C(=O)CO` [Example M18, N-[2-({(2S)-2-Amino-4-[{(1R)-1-[1-benzyl-4-(2,5-difluorophenyl)-1H-pyrrol-2-yl]-2,2-dimethylpropyl}(glycoloyl)amino]butanoyl}amino)ethyl]-L-glutamine/trifluoroacetic acid (1.1)] came in with a half-maximal inhibitory concentration (IC50) in the data set on NCI-H292 (setting [2]) of 35.5 nM.

In turn, `CC(C)(C)[C@H](c1cc(-c2cc(F)ccc2F)cn1Cc1ccccc1)N(CC[C@H](N)C(=O)NCCC(=O)NCCCC[C@H](N)C(=O)O)C(=O)CO` [Example M19, N^6—(N-{(2S)-2-Amino-4-[{(1R)-1-[1-benzyl-4-(2,5-difluorophenyl)-1H-pyrrol-2-yl]-2,2-dimethylpropyl}(glycoloyl)amino]butanoyl}-beta-alanyl)-L-lysine/trifluoroacetic acid (1:1)] showed an IC50 with NCI-H292 (setting [2]) of 121 nM.

Take `CC(C)(C)[C@H](c1cc(-c2cc(F)ccc2F)cn1Cc1ccccc1)N(CCCN)C(=O)CSC[C@H](NC(=O)CCOCCOCCOCCOCCNC(=O)CNC(=O)CC(SC[C@H](N)C(=O)O)C(=O)O)C(=O)O` (stereo partly drawn) [Example M20, (1R,4R,27R,33R)-1-Amino-32-(3-aminopropyl)-33-[1-benzyl-4-(2,5-difluorophenyl)-1H-pyrrol-2-yl]-34,34-dimethyl-6,9,25,31-tetraoxo-13,16,19,22-tetraoxa-3,29-dithia-7,10,26,32-tetraazapentatriacontane-1,4,27-tricarboxylic acid/trifluoroacetic acid (1:2)]: the IC50 in the data set with NCI-H292 (setting [2]) is 149 nM; with KPL4 (KPL4, MTT assay), 213 nM.

Consider `CC(C)(C)[C@H](c1cc(-c2cc(F)ccc2F)cn1Cc1ccccc1)N(CCCN)C(=O)CSC[C@H](NC(=O)CCOCCOCCOCCOCCNC(=O)CNC(=O)CC(SC[C@@H](N)C(=O)O)C(=O)O)C(=O)O` (stereo partly drawn) [Example M22], for which the “Papp (B-A)” value with Caco-2 cells was 0.09 ×10⁻⁶ cm/s. The values for the IC50 with NCI-H292 (MTT assay) and in the data set on KPL4 (MTT assay) were 28.9 nM and 182 nM, respectively.

With `CC(C)(C)[C@H](c1cc(-c2cc(F)ccc2F)cn1Cc1ccccc1)N(CC[C@H](N)C(=O)NCCC(=O)N[C@@H](CCC(=O)O)C(=O)O)C(=O)CO` [Example M23, N-{(2S)-2-Amino-4-[{(1R)-1-[1-benzyl-4-(2,5-difluorophenyl)-1H-pyrrol-2-yl]-2,2-dimethylpropyl}(glycoloyl)amino]butanoyl}-beta-alanyl-L-glutamic acid-trifluoroacetic acid (1.1)], the half-maximal inhibitory concentration (IC50) in the data set on NCI-H292 (setting [2]) turned out to be 500 nM; in the data set with KPL4 (KPL4, MTT assay), 500 nM.

In the case of `CC(C)(C)[C@H](c1cc(-c2cc(F)ccc2F)cn1Cc1ccccc1)N(CC[C@H](N)C(=O)NCCC(=O)N[C@H](CCC(=O)O)C(=O)O)C(=O)CO` [Example M24, N-{(2S)-2-Amino-4-[{(1R)-1-[1-benzyl-4-(2,5-difluorophenyl)-1H-pyrrol-2-yl]-2,2-dimethylpropyl}(glycoloyl)amino]butanoyl}-beta-alanyl-D-glutamic acid-trifluoroacetic acid], the IC50 came to 167 nM in the data set on NCI-H292 (setting [2]) and 500 nM with KPL4 (KPL4, MTT assay).

The values above are taken from patent US11071788B2, “Antibody drug conjugates of kinesin spindel protein (KSP) inhibitors with antiB7H3-antibodies” (BAYER PHARMA AKTIENGESELLSCHAFT, priority 2015, dated 2021).
